Assay results reported in ChEMBL document CHEMBL3885861, “Open TG-GATES”.

Species: Rattus norvegicus
Experiment: Open TG-GATES - Regimen: Single
Assay type: toxicity, organism-based, Sprague-Dawley
Set-up: regimen Single, gender Male, age 6 weeks
Settings: in vivo, po, 100 mg/kg, route gavage; for APTT / Bas / Eos / Fbg / Hb / Ht / Lym / MCH / MCHC / MCV / Mono / Neu / PT / Plat / RBC / Ret / WBC: tissue Blood; for KIDNEY_L / KIDNEY_R / KIDNEY_TOTAL: tissue Kidney; for LIVER: tissue Liver; for A/G / ALP / ALT / AST / BUN / CRE / Ca / Cl / DBIL / GLC / IP / K / LDH / Na / PL / RALB / TBIL / TC / TG / TP / gamma-GTP: tissue Plasma

O=C1CN(/N=C/c2ccc([N+](=O)[O-])o2)C(=O)N1 [NITROFURANTOIN]
TERMINAL_BW (6 h, dose level Low): 199.6 g | APTT (6 h, dose level High): 18.6 s | Bas (6 h, dose level High): 0% | Eos (6 h, dose level High): 1% | Fbg (6 h, dose level High): 216.6 mg/dL | Hb (6 h, dose level High): 13.3 g/dL | Ht (6 h, dose level High): 38% | Lym (6 h, dose level High): 73% | MCH (6 h, dose level High): 21.6 pg | MCHC (6 h, dose level High): 35% | MCV (6 h, dose level High): 61.7 fL | Mono (6 h, dose level High): 3.2% | Neu (6 h, dose level High): 21.4% | PT (6 h, dose level High): 12.9 s | Plat (6 h, dose level High): 122 x10_4/uL | RBC (6 h, dose level High): 615 x10_4/ul | Ret (6 h, dose level High): 7.7% | WBC (6 h, dose level High): 113.2 x10_2/uL | APTT (6 h, dose level Low): 16.4 s | Eos (6 h, dose level Low): 1.2% | Fbg (6 h, dose level Low): 215.8 mg/dL | Hb (6 h, dose level Low): 13.4 g/dL | Ht (6 h, dose level Low): 40.6% | Lym (6 h, dose level Low): 74.6% | MCH (6 h, dose level Low): 21.3 pg | MCHC (6 h, dose level Low): 32.9% | MCV (6 h, dose level Low): 64.5 fL | Mono (6 h, dose level Low): 6.8% | Neu (6 h, dose level Low): 17.8% | PT (6 h, dose level Low): 11.7 s | Plat (6 h, dose level Low): 121.5 x10_4/uL | RBC (6 h, dose level Low): 629.8 x10_4/ul | Ret (6 h, dose level Low): 7% | WBC (6 h, dose level Low): 89.8 x10_2/uL | KIDNEY_L (6 h, dose level High): 1 g | KIDNEY_R (6 h, dose level High): 1 g | KIDNEY_TOTAL (6 h, dose level High): 2 g | KIDNEY_L (6 h, dose level Low): 0.9 g | KIDNEY_R (6 h, dose level Low): 0.9 g | KIDNEY_TOTAL (6 h, dose level Low): 1.8 g | LIVER (6 h, dose level High): 9.4 g | LIVER (6 h, dose level Low): 8.3 g | A/G (6 h, dose level High): 1.5 | ALP (6 h, dose level High): 745.6 IU/L | ALT (6 h, dose level High): 32.2 IU/L | AST (6 h, dose level High): 64.6 IU/L | BUN (6 h, dose level High): 10.6 mg/dL | CRE (6 h, dose level High): 0.4 mg/dL | Ca (6 h, dose level High): 10.6 mg/dL | Cl (6 h, dose level High): 103.8 meq/L | DBIL (6 h, dose level High): 0.078 mg/dL | GLC (6 h, dose level High): 184.4 mg/dL | IP (6 h, dose level High): 8.9 mg/dL | K (6 h, dose level High): 4.2 meq/L | LDH (6 h, dose level High): 211 IU/L | Na (6 h, dose level High): 140.8 meq/L | PL (6 h, dose level High): 135.4 mg/dL | RALB (6 h, dose level High): 3.3 g/dL | TBIL (6 h, dose level High): 0.1 mg/dL | TC (6 h, dose level High): 78.8 mg/dL | TG (6 h, dose level High): 55 mg/dL | TP (6 h, dose level High): 5.5 g/dL | gamma-GTP (6 h, dose level High): 1.2 IU/L | A/G (6 h, dose level Low): 2.2 | ALP (6 h, dose level Low): 1217 IU/L | AST (6 h, dose level Low): 66 IU/L | BUN (6 h, dose level Low): 13.6 mg/dL | Ca (6 h, dose level Low): 11 mg/dL | Cl (6 h, dose level Low): 104.6 meq/L | DBIL (6 h, dose level Low): 0.008 mg/dL | GLC (6 h, dose level Low): 190.8 mg/dL | IP (6 h, dose level Low): 8.7 mg/dL | K (6 h, dose level Low): 4.6 meq/L | LDH (6 h, dose level Low): 92.2 IU/L | Na (6 h, dose level Low): 139.4 meq/L | PL (6 h, dose level Low): 150.8 mg/dL | RALB (6 h, dose level Low): 3.9 g/dL | TBIL (6 h, dose level Low): 0.036 mg/dL | TC (6 h, dose level Low): 100 mg/dL | TG (6 h, dose level Low): 44 mg/dL | TP (6 h, dose level Low): 5.7 g/dL | gamma-GTP (6 h, dose level Low): 0.4 IU/L | TERMINAL_BW (9 h, dose level High): 213.9 g | TERMINAL_BW (9 h, dose level Low): 211 g | APTT (9 h, dose level High): 19.3 s | Bas (9 h, dose level High): 0% | Eos (9 h, dose level High): 1% | Fbg (9 h, dose level High): 245.8 mg/dL | Hb (9 h, dose level High): 13.1 g/dL | Ht (9 h, dose level High): 37.3% | Lym (9 h, dose level High): 75.4% | MCH (9 h, dose level High): 21.5 pg | MCHC (9 h, dose level High): 35.2% | MCV (9 h, dose level High): 61.1 fL | Mono (9 h, dose level High): 2.6% | Neu (9 h, dose level High): 19.8% | PT (9 h, dose level High): 12.9 s | Plat (9 h, dose level High): 126.6 x10_4/uL | RBC (9 h, dose level High): 609.4 x10_4/ul | Ret (9 h, dose level High): 8% | WBC (9 h, dose level High): 77.1 x10_2/uL | APTT (9 h, dose level Low): 19 s | Eos (9 h, dose level Low): 1.2% | Fbg (9 h, dose level Low): 229.2 mg/dL | Hb (9 h, dose level Low): 12.7 g/dL | Ht (9 h, dose level Low): 39% | Lym (9 h, dose level Low): 65.6% | MCH (9 h, dose level Low): 20.8 pg | MCHC (9 h, dose level Low): 32.7% | MCV (9 h, dose level Low): 63.6 fL | Mono (9 h, dose level Low): 9.2% | Neu (9 h, dose level Low): 24.4% | PT (9 h, dose level Low): 12.3 s | Plat (9 h, dose level Low): 124.9 x10_4/uL | RBC (9 h, dose level Low): 612.8 x10_4/ul | Ret (9 h, dose level Low): 6.7% | WBC (9 h, dose level Low): 65.8 x10_2/uL | KIDNEY_L (9 h, dose level High): 1 g | KIDNEY_R (9 h, dose level High): 1 g | KIDNEY_TOTAL (9 h, dose level High): 2 g | KIDNEY_R (9 h, dose level Low): 0.9 g | KIDNEY_TOTAL (9 h, dose level Low): 1.9 g | LIVER (9 h, dose level High): 9.3 g | LIVER (9 h, dose level Low): 9.4 g | A/G (9 h, dose level High): 1.5 | ALP (9 h, dose level High): 749 IU/L | ALT (9 h, dose level High): 33.2 IU/L | AST (9 h, dose level High): 62 IU/L | BUN (9 h, dose level High): 11 mg/dL | CRE (9 h, dose level High): 0.3 mg/dL | Ca (9 h, dose level High): 10.7 mg/dL | Cl (9 h, dose level High): 103.4 meq/L | DBIL (9 h, dose level High): 0.07 mg/dL | GLC (9 h, dose level High): 191.8 mg/dL | IP (9 h, dose level High): 9.6 mg/dL | K (9 h, dose level High): 4 meq/L | LDH (9 h, dose level High): 219.8 IU/L | Na (9 h, dose level High): 141.2 meq/L | PL (9 h, dose level High): 146.6 mg/dL | RALB (9 h, dose level High): 3.2 g/dL | TBIL (9 h, dose level High): 0.1 mg/dL | TC (9 h, dose level High): 82.2 mg/dL | TG (9 h, dose level High): 42.2 mg/dL | TP (9 h, dose level High): 5.5 g/dL | gamma-GTP (9 h, dose level High): 1.2 IU/L | A/G (9 h, dose level Low): 2.1 | ALP (9 h, dose level Low): 1192 IU/L | ALT (9 h, dose level Low): 30.2 IU/L
